Data from US20260263606A1 (priority 2022, published 2026).
Where two headings read alike, the source gives them in different places.

Columns and labels:
METTL3-METTL14 [1] = target: T1, METTL3-METTL14 (Homo sapiens, UniProt Q86U44); conditions: for LLE (lipophilic ligand efficiency, pIC50-logP): calculated with DataWarrior; for LE (ligand efficiency): from TR-FRET IC50
Target sequence in this assay (Q9HCE5 whole entry): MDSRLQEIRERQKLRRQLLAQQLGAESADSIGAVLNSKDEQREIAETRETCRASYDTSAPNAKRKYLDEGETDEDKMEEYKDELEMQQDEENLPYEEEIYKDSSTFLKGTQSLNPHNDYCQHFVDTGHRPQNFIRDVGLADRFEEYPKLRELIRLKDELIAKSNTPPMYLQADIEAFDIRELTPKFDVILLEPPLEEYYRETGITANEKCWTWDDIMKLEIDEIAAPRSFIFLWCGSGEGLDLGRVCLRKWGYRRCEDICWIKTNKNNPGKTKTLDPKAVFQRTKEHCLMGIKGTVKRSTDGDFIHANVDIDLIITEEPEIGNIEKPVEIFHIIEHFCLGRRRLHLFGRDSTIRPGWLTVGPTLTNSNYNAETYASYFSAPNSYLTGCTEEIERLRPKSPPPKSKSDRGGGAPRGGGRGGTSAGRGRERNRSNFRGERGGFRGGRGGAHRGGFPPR
Target sequence in this assay (Q86U44 whole entry): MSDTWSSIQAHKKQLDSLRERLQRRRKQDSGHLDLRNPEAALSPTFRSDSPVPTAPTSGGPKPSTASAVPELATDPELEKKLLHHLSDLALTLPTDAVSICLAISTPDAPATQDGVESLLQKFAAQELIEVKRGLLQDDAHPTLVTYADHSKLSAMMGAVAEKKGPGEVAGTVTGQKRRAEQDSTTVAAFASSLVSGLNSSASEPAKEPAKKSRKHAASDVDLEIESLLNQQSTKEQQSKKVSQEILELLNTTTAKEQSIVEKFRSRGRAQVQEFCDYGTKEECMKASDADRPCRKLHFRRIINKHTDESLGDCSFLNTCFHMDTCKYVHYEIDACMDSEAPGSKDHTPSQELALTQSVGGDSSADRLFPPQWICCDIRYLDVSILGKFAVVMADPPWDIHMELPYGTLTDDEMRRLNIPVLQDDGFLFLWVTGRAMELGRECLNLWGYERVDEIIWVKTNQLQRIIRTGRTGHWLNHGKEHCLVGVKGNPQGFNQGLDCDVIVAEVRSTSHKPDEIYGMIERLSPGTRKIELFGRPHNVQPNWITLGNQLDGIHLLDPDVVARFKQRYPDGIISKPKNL

METTL3-METTL14 [2] = target: T1, METTL3-METTL14; test: biochemical
Target sequence in this assay (Q9HCE5 whole entry): as the sequence (Q9HCE5 whole entry) above
Target sequence in this assay (Q86U44 whole entry): as the sequence (Q86U44 whole entry) above

METTL3-METTL14 [3] = target: T1, METTL3-METTL14; test: Protein thermal shift assay, METTL3/METTL14; conditions: read-out: ΔTm of METTL3/METTL14
Target sequence in this assay (Q86U44 whole entry): as above
Target sequence in this assay (Q9HCE5 whole entry partner): as the sequence (Q9HCE5 whole entry) above

[4] = test system: m^6A/A ratio in polyadenylated RNA, MOLM-13 cells; test: m6A/A ratio in polyadenylated RNA by UPLC-MS/MS, MOLM-13; conditions: Homo sapiens, MOLM-13, 16 h, read-out: EC50 reduction of m^6A/A in polyadenylated RNA
[5] = Rat liver microsomes
[6] = read-out: IC50 for N6-adenosine-methyltransferase, exemplary PROTAC compounds, Table 9, HTRF, triplicates

Row | SMILES | LLE (lipophilic ligand efficiency, pIC50-logP) (METTL3-METTL14 [1]) | IC50 (METTL3-METTL14 [1]; [6]) | further results
1 | CNc1cc(N2CCC3(CC2)CN(c2ccc(CN4CCC(C)(C)CC4)cc2)CC(=O)N3C)ncn1 [Compound 13] | 3.0 |  | IC50 (METTL3-METTL14 [1]; TR-FRET assay): 1500 nM; LE (ligand efficiency) (METTL3-METTL14 [1]): 0.22 kcal.mol^−1 heavy atom count^−1
2 | CC1(C)CCN(Cc2ccc(N3CC(=O)NC4(CCN(c5cc(NCCCNC(=O)CCOCCOCCOCCOCCNc6cccc7c6C(=O)N(C6CCC(=O)NC6=O)C7=O)ncn5)CC4)C3)cc2)CC1 (stereo not shown) [Compound 10-6] |  | 590 nM | 
3 | CC1(C)CCN(Cc2cc(F)c(N3CC(=O)NC4(CCN(c5cc(NCCCNC(=O)CCCCCCCCCCNc6cccc7c6CN(C6CCC(=O)NC6=O)C7=O)ncn5)CC4)C3)cc2F)CC1 (stereo not shown) [Compound 56-1] |  | 300 nM | 
4 | CNc1cc(N2CCC3(CC2)CN(c2ccc(CN4CCC(C)(C)CC4)cc2)CC(=O)N3)ncn1 [Compound 10, 4-(4-((4,4-dimethylpiperidin-1-yl)methyl)phenyl)-9-(6-(methylamino)pyrimidin-4-yl)-1,4,9-triazaspiro[5.5]undecan-2-one] |  |  | IC50 (METTL3-METTL14 [1]; TR-FRET assay): 89 nM
5 | CC1(C)CCN(Cc2ccc(C(=O)NC3CCN(c4cc(NCc5ccccc5)ncn4)CC3)cn2)CC1 [Compound 6] | 1.7 |  | LE (ligand efficiency) (METTL3-METTL14 [1]): 0.20 kcal.mol^−1 heavy atom count^−1
6 | CNc1cc(N2CCC(O)(CNc3ccc(CN4CCC(C)(C)CC4)nc3)CC2)ncn1 [Compound 4] | 3.4 |  | IC50 (METTL3-METTL14 [1]; TR-FRET assay): 5800 nM
7 | CC1(C)CCN(Cc2ccc(N3CC(=O)NC4(CCN(c5cc(NCCCNC(=O)CCCCCCCCn6cc(CNc7cccc8c7C(=O)N(C7CCC(=O)NC7=O)C8=O)nn6)ncn5)CC4)C3)cc2)CC1 (stereo not shown) [Compound 57-1] |  |  | IC50 (METTL3-METTL14 [2]): 480 nM
8 | CC1(C)CCN(Cc2ccc(N3CC(=O)NC4(CCN(c5cc(NCCCNC(=O)CCCCCCCCCCCCCCNc6cccc7c6CN(C6CCC(=O)NC6=O)C7=O)ncn5)CC4)C3)cc2)CC1 (stereo not shown) [Compound 54-1] |  | 1220 nM | 
9 | CC1(C)CCN(Cc2ccc(N3CC(=O)NC4(CCN(c5cc(NCCCNC(=O)CCOCCOCCOCCNc6cccc7c6C(=O)N(C6CCC(=O)NC6=O)C7=O)ncn5)CC4)C3)cc2)CC1 (stereo not shown) [Compound 9-5] |  | 1060 nM | 
10 | CC1(C)CCN(Cc2cc(F)c(N3CC(=O)NC4(CCN(c5cc(NCCCNC(=O)CCCCCCCCCCn6cc(CNc7cccc8c7C(=O)N(C7CCC(=O)NC7=O)C8=O)nn6)ncn5)CC4)C3)cc2F)CC1 (stereo not shown) [Compound 59-1] |  | 220 nM | 
11 | CNc1cc(N2CCC3(CC2)CN(c2cc(F)c(CN4CCC(C)(C)CC4)cc2F)CC(=O)N3)ncn1 [Compound 22, 4-(4-((4,4-Dimethylpiperidin-1-yl)methyl)-2,5-difluorophenyl)-9-(6-(methylamino)pyrimidin-4-yl)-1,4,9-triazaspiro[5.5]undecan-2-one] |  |  | ΔTm at 100 µM (METTL3-METTL14 [3]): 4.7 °C; EC50 [4]: 700 nM
12 | CC1(C)CCN(Cc2ccc(N3CC(=O)NC4(CCN(c5nc(Cl)nc6[nH]ccc56)CC4)C3)cc2)CC1 [Compound 19, 9-(2-Chloro-7H-pyrrolo[2,3-d]pyrimidin-4-yl)-4-(4-((4,4-dimethylpiperidin-1-yl)methyl)phenyl)-1,4,9-triazaspiro[5.5]undecan-2-one] | 3.9 |  | RLM t1/2 [5]: 32 min
13 | CC(C)Nc1cc(N2CCC3(CC2)CN(c2ccc(CN4CCC(C)(C)CC4)cc2)CC(=O)N3)ncn1 [Compound 15, 4-(4-((4,4-Dimethylpiperidin-1-yl)methyl)phenyl)-9-(6-(isopropylamino)pyrimidin-4-yl)-1,4,9-triazaspiro[5.5]undecan-2-one] | 3.2 |  | LE (ligand efficiency) (METTL3-METTL14 [1]): 0.24 kcal.mol^−1 heavy atom count^−1
14 | CNc1cc(N2CCC(O)(CNc3ccc(CN4CCC(C)(C)CC4)cc3)CC2)ncn1 [Compound 2] | 2.5 |  | IC50 (METTL3-METTL14 [1]; TR-FRET assay): 5000 nM
15 | CC1(C)CCN(Cc2cc(F)c(N3CC(=O)NC4(CCN(c5cc(NCCCNC(=O)CCCCCCCCNc6cccc7c6CN(C6CCC(=O)NC6=O)C7=O)ncn5)CC4)C3)cc2F)CC1 (stereo not shown) [Compound 55-1] |  | 66 nM | 
16 | CC1(C)CCN(Cc2cc(F)c(N3CC(=O)NC4(CCN(c5cc(NCc6cccc(CNC(=O)CCCCCCCCNc7cccc8c7CN(C7CCC(=O)NC7=O)C8=O)c6)ncn5)CC4)C3)cc2F)CC1 (stereo not shown) [Compound 50-1] |  | 67 nM | 
17 | CNc1cc(N2CCC(O)(CNc3ccc(CN4CCC(C)(C)CC4)cn3)CC2)ncn1 [Compound 3] | 3.2 |  | IC50 (METTL3-METTL14 [1]; TR-FRET assay): 4600 nM

Row | SMILES | LLE (lipophilic ligand efficiency, pIC50-logP) (METTL3-METTL14 [1]) | IC50 (METTL3-METTL14 [1]; [6]) | further results
18 | CC1(C)CCN(Cc2ccc(N3CC(=O)NC4(CCN(c5cc(NCCCNC(=O)CCn6cc(CNc7cccc8c7C(=O)N(C7CCC(=O)NC7=O)C8=O)nn6)ncn5)CC4)C3)cc2)CC1 (stereo not shown) [Compound 13-11] |  |  | IC50 (METTL3-METTL14 [2]): 1800 nM
19 | CNc1cc(N2CC3(CN(c4ccc(CN5CCC(C)(C)CC5)cc4)CC(=O)N3)C2)ncn1 [Compound 11, 8-(4-((4,4-Dimethylpiperidin-1-yl)methyl)phenyl)-2-(6-(methylamino)pyrimidin-4-yl)-2,5,8-triazaspiro[3.5]nonan-6-one] | 4.5 |  | RLM t1/2 [5]: 70 min; LE (ligand efficiency) (METTL3-METTL14 [1]): 0.26 kcal.mol^−1 heavy atom count^−1
20 | Nc1ncnc2c1ncn2[C@@H]1O[C@H](CSCC[C@H](N)C(=O)O)[C@@H](O)[C@H]1O [SAH, S-adenosyl-L-homocysteine, reference compound] |  |  | ΔTm at 100 µM (METTL3-METTL14 [3]): 2.8 °C
21 | CNc1cc(N2CCCC(O)(CNC(=O)c3ccc(CN4CCC(C)(C)CC4)cc3)C2)ncn1 (stereo not shown) [Compound 1] | 2.5 |  | LE (ligand efficiency) (METTL3-METTL14 [1]): 0.21 kcal.mol^−1 heavy atom count^−1
22 | CC1(C)CCN(Cc2cc(F)c(N3CC(=O)NC4(CCN(c5cc(NCCCNC(=O)CCCCCCCCn6cc(CNc7cccc8c7C(=O)N(C7CCC(=O)NC7=O)C8=O)nn6)ncn5)CC4)C3)cc2F)CC1 (stereo not shown) [Compound 58-1] |  | 67 nM | 
23 | CNc1cc(N2CCC3(CC2)CN(c2ccc(CN4CCC(C)(C)CC4)cc2)C(=O)N3)ncn1 [Compound 12] | 2.6 |  | LE (ligand efficiency) (METTL3-METTL14 [1]): 0.23 kcal.mol^−1 heavy atom count^−1
24 | CC1(C)CCN(Cc2ccc(N3CC(=O)NC4(CCN(c5cc(NCCCNC(=O)CCCCCCCCNc6cccc7c6CN(C6CCC(=O)NC6=O)C7=O)ncn5)CC4)C3)cc2)CC1 (stereo not shown) [Compound 14-12] |  | 260 nM | 
25 | CC1(C)CCN(Cc2cc(F)c(N3CC(=O)NC4(CCN(c5cc(NCc6cccc(CNC(=O)CCn7cc(CNc8cccc9c8C(=O)N(C8CCC(=O)NC8=O)C9=O)nn7)c6)ncn5)CC4)C3)cc2F)CC1 (stereo not shown) [Compound 53-1] |  |  | IC50 (METTL3-METTL14 [2]): 200 nM
26 | CC1(C)CCN(Cc2cc(F)c(N3CC(=O)NC4(CCN(c5cc(NCc6cccc(CNC(=O)CCCCCCCCCCNc7cccc8c7CN(C7CCC(=O)NC7=O)C8=O)c6)ncn5)CC4)C3)cc2F)CC1 (stereo not shown) [Compound 51-1] |  | 160 nM | 
27 | CN(C)c1cc(N2CCC3(CC2)CN(c2ccc(CN4CCC(C)(C)CC4)cc2)CC(=O)N3)ncn1 [Compound 14] | 3.2 |  | LE (ligand efficiency) (METTL3-METTL14 [1]): 0.23 kcal.mol^−1 heavy atom count^−1
28 | CC1(C)CCN(Cc2ccc(N3CC(=O)NC4(CCN(c5cc(NCCCNC(=O)CCOCCOCCOCCOCCOCCNc6cccc7c6C(=O)N(C6CCC(=O)NC6=O)C7=O)ncn5)CC4)C3)cc2)CC1 (stereo not shown) [Compound 11-7] |  | 640 nM | 
29 | CC1(C)CCN(Cc2ccc(N3CC(=O)NC4(CCN(c5cc(NCCCNC(=O)CNc6cccc7c6CN(C6CCC(=O)NC6=O)C7=O)ncn5)CC4)C3)cc2)CC1 (stereo not shown) [Compound 15-13] |  |  | IC50 (METTL3-METTL14 [2]): 520 nM
30 | CC1(C)CCN(Cc2ccc(NCC3(O)CCN(c4cc(NCc5ccccc5)ncn4)CC3)cn2)CC1 [Compound 5] |  |  | IC50 (METTL3-METTL14 [1]; TR-FRET assay): 790 nM
31 | CC1(C)CCN(Cc2cc(F)c(N3CC(=O)NC4(CCN(c5cc(NCC6CCN(C(=O)CCCCCCCCN7CCN(c8cccc9c8C(=O)N(C8CCC(=O)NC8=O)C9=O)CC7)CC6)ncn5)CC4)C3)cc2F)CC1 (stereo not shown) [Compound 49-1] |  |  | IC50 (METTL3-METTL14 [2]): 5 nM
32 | CC1(C)CCN(Cc2ccc(N3CC(=O)NC4(CCN(c5cc(NCCCNC(=O)CCOCCOCCNc6cccc7c6C(=O)N(C6CCC(=O)NC6=O)C7=O)ncn5)CC4)C3)cc2)CC1 (stereo not shown) [Compound 8-4] |  | 2470 nM | 
33 | CC1(C)CCN(Cc2ccc(N3CC(=O)NC4(CCN(c5ccnc6[nH]ccc56)CC4)C3)cc2)CC1 [Compound 18] | 2.3 |  | LE (ligand efficiency) (METTL3-METTL14 [1]): 0.20 kcal.mol^−1 heavy atom count^−1
34 | CC1(C)CCN(Cc2cc(F)c(N3CC(=O)NC4(CCN(c5cc(NCc6cccc(CNC(=O)CCCCCCCCn7cc(CNc8cccc9c8C(=O)N(C8CCC(=O)NC8=O)C9=O)nn7)c6)ncn5)CC4)C3)cc2F)CC1 (stereo not shown) [Compound 52-1] |  | 88 nM | 
